Experimental data: BindingDB's records for doi:10.1074/jbc.M203194200 (Tanabe Seiyaku, 2002)

Molecular target: Oxoeicosanoid receptor 1 (Homo sapiens, UniProt Q8TDS5)
Sequence (Q8TDS5 as listed by the source): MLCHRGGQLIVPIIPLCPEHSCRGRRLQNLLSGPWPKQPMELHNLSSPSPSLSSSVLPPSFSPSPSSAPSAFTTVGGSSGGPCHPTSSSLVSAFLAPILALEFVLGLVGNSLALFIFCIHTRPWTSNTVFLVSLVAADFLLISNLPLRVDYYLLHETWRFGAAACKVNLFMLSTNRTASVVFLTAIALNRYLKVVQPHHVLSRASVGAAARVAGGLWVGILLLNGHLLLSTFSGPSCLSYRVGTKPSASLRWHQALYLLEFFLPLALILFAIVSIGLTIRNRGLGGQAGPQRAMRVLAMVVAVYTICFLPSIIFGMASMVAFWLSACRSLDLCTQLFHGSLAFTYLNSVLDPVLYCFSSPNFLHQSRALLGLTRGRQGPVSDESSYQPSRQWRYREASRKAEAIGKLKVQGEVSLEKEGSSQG

Question: How did the Ki turn out when CC/C=C\C/C=C\C/C=C\C/C=C\C/C=C\CCCC(=O)O [5,8,11,14,17-EICOSAPENTAENOIC ACID] was run?
Answer: The Ki was 6 µM.

Question: How did the Ki turn out when CCCCC/C=C\C/C=C\C/C=C\CCCCCCC(=O)O [(Z,Z,Z)-8,11,14-Eicosatrienoic acid] was run?
Answer: Its Ki is 3.7 µM.

Question: Which Ki does the source give for CC/C=C\C/C=C\C/C=C\C/C=C\C/C=C\C/C=C\CCC(=O)O [all-cis-docosa-4,7,10,13,16,19-hexaenoic acid] here?
Answer: Its Ki is 1.6 µM.
